The record followed here is patent EP4778922A1, “BICYCLIC COMPOUND, AND PREPARATION METHOD THEREFOR AND PHARMACEUTICAL USE THEREOF” (Shanghai Jeyou Pharmaceutical Co., Ltd., priority 2023, dated 2025).

One data set deals with LNCaP cells. Briefly: Cell proliferation inhibition assay in LNCaP cells (0.2 nM DHT, CellTiter-Glo, 7 days). Format: cell-based, human. As for the experimental part: • 1. The human prostate cancer cell lines 22RV1 and LNCaP were purchased from ATCC. […] The cell concentration was adjusted to an appropriate concentration (determined based on the results of cell density optimization experiments), and the cells were seeded into a 96-well plate. A 100 µL cell suspension was added, resulting in 3000 cells per well. […] On the second day, for 22Rv1 cells, test compounds at different concentrations were added, and the cells were incubated at 37°C in a 5% CO2 incubator for 7 days; for LNCaP cells, test compounds at different concentrations were added first, and after 1 hour of treatment, 0.2 nM DHT was added. The cells were then incubated at 37°C in a 5% CO2 incubator for 7 days. • 4. After the incubation period, a volume of CellTiter-Glo detection reagent equal to the volume of the culture medium was added to each well. The plate was shaken and mixed thoroughly for 5 minutes, then incubated at room temperature for 10 minutes. Readings were taken using a PerkinElmer EnVision microplate reader. • 5.
The IC50 curve was fitted and the IC50 value was calculated using the software GraphPad Prism 8 with the calculation formula XY-analysis/Nonlinear regression (curve fit)/Dose response-Inhibition/log (inhibitor) vs. response-Variable slope (four parameters).
In general terms: In ATP-based viability assays light output follows the ATP content of the culture.

For the next data set, the target named is T1, CYP2C8 (Homo sapiens, UniProt P10632).
T1 construct: co-incubated with human liver microsomes; from tissue; host or cells: human liver microsomes
T1 sequence (P10632 1-490): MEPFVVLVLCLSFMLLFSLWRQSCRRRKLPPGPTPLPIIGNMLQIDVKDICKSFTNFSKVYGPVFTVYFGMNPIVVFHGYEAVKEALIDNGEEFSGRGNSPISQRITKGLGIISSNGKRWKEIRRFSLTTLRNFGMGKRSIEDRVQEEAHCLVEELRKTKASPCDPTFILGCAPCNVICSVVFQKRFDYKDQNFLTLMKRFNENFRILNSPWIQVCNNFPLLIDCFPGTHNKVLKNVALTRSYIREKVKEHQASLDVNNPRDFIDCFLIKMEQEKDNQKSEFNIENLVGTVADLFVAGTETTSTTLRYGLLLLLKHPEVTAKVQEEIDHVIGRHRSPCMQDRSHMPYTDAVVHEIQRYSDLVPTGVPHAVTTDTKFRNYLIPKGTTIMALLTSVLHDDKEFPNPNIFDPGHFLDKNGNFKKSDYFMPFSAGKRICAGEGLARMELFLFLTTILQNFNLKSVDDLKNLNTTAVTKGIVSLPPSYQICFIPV
In words: CYP inhibition assay in human liver microsomes. Format: in vitro ADME. The settings on record: human liver microsomes, NADPH; read-out: CYPs 2C8 (IC50). As for the experimental part:
(§1) Test Example 3: CYP Inhibition Assay
(§2) An in vitro assay system was used to evaluate the effects of the compounds on the activities of several human liver microsomal cytochrome P450 (CYP) isozymes (CYP1A2, CYP2C9, CYP2D6, CYP3A4 (testosterone/midazolam), CYP2C19, and CYP2C8). Specific probe substrates for CYP450 isozymes were co-incubated with human liver microsomes and the compound at various concentrations (0, 0.0300, 0.100, 0.300, 1.00, 3.00, 10.0 µM). The reaction was initiated by adding the coenzyme NADPH. After the reaction was completed, the samples were processed, and the metabolites generated from the probe substrates were detected by liquid chromatography-tandem mass spectrometry (LC-MS/MS). Based on the resulting dose-response curves, the IC50 values of the test compounds for the probe substrate reactions catalyzed by each CYP isozyme were calculated.

Another data set deals with T2, CYP2C19 (Homo sapiens, UniProt P33261).
T2 construct: co-incubated with human liver microsomes; from tissue; host or cells: human liver microsomes
Briefly: CYP inhibition assay in human liver microsomes. Format: in vitro ADME. The settings on record: human liver microsomes, NADPH; read-out: CYPs 2C19 (IC50). As to the method:
as §1, §2
(Microsomes from liver hold many membrane-bound enzymes, among them those of drug oxidation.)

In data set [1] the target is T3, CYP3A4 (testosterone/midazolam) (Homo sapiens, UniProt P08684).
T3 construct: co-incubated with human liver microsomes; from tissue; host or cells: human liver microsomes
Briefly: CYP inhibition assay in human liver microsomes. Type of data set: in vitro ADME. As for the experimental part:
as §1, §2

The subject of another data set is 22RV1 cells. In words: Cell proliferation inhibition assay in 22RV1 cells (CellTiter-Glo, 7 days). Format: cell-based, human. The method in brief:
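LNCaP and 22RV1 human prostate cancer cells, 3000 per well, exposed to graded compound for 7 days at 37°C, 5% CO2; LNCaP got 0.2 nM DHT 1 h after compound. Viability by CellTiter-Glo luminescence; IC50 from four-parameter variable-slope fit.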

Data set [2] can be described thus: Mouse pharmacokinetic test. Format: in vivo, ICR mice. The settings on record: PO-30mpk, 30 mg/kg. The method in brief:
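Male naive ICR mice (25–30 g, n=3 per route) received a single intravenous or oral dose, with feeding resumed 4 h post-dose. Blood was centrifuged at 4°C, and plasma was stored at -80°C until analysis.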

Where [3] appears, read: probe substrate midazolam, read-out: CYPs 3A4 (Midazolam) (IC50).
Where [4] appears, read: probe substrate testosterone, read-out: CYPs 3A4 (Testosterone) (IC50).

Where two headings read alike, the source gives them in different places.

T3 sequence (P08684 whole entry): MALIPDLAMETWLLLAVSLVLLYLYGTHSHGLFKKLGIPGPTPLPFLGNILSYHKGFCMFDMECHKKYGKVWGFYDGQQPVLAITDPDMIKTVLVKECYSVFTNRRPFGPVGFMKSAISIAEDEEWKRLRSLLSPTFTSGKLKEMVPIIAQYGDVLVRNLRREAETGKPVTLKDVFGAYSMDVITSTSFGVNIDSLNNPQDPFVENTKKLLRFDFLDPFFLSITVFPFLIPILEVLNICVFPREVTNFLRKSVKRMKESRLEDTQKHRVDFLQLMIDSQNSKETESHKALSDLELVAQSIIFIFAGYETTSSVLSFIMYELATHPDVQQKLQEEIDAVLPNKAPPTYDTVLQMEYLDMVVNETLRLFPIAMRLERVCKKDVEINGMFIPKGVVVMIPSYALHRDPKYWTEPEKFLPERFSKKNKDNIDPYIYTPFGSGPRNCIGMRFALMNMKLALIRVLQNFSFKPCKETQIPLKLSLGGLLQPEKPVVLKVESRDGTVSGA
T2 sequence (P33261 whole entry): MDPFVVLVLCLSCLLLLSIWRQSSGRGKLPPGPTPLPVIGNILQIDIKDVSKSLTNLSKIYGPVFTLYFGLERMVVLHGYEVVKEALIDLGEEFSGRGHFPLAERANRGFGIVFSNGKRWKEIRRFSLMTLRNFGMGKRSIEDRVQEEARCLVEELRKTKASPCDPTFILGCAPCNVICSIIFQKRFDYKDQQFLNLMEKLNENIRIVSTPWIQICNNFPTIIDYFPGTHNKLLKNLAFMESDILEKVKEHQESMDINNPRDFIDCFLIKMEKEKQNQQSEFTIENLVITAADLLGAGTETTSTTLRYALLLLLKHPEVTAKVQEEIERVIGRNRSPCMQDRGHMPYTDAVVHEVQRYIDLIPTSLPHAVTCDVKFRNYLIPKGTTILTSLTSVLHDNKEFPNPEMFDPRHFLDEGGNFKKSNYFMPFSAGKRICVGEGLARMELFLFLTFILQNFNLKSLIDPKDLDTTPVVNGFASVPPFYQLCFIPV

For orientation: IC50 means the concentration at which inhibition is half-maximal. `CC(C)(c1ccc(-c2cnc(OCc3ccnc(N4CC(S(=N)(=O)C5CC5)C4)n3)cn2)cc1)c1cc(Cl)c(OCCCl)c(C#N)c1` (single isomer, unassigned) [Compound 350A]: the IC50 in the data set with LNCaP cells (Homo sapiens, LNCaP, 168 h) is 55 nM; on CYP2C8, more than 10000 nM; on CYP2C19, more than 10000 nM; in data set [1] (setting [3]), more than 10000 nM; in data set [1] (setting [4]), more than 10000 nM.

By Cmax is commonly meant the peak of the concentration-time curve. As a reminder, the half-life is the time needed for the level to fall by half in the phase considered. The low end stands for rapid decline, the high end for slow decline. One may read the Tmax as the time at which the peak concentration occurs. As for `CC(C)(c1ccc(-c2cnc(OCc3ccnc(N4CC5(CCS5(=N)=O)C4)n3)cn2)cc1)c1cc(Cl)c(OCCCl)c(C#N)c1` (single isomer, unassigned) [Compound 375A], the half-maximal inhibitory concentration (IC50) with 22RV1 cells (Homo sapiens, 22Rv1, 168 h) is 89 nM; with LNCaP cells, 58 nM; on CYP2C8, more than 10000 nM; at CYP2C19 it was more than 10000 nM; in data set [1] (setting [3]), more than 10000 nM; in data set [1] (setting [4]) it was more than 10000 nM. This compound had an AUCi in data set [2] of 1307.079 µg·h/mL. This compound gave a Cmax in data set [2] (plasma, po) of 109000 ng/mL. Further, the half-life in data set [2] (plasma, po) is 6.82 h. Also, the Tmax in data set [2] (plasma, po, read-out: Tmax) worked out at 3.3 h.

`CC(C)(c1ccc(-c2cnc(OCc3ccnc(N4CC(S(N)(=O)=O)C4)n3)cn2)cc1)c1cc(Cl)c(OCCCl)c(C#N)c1` [Compound 378]: the IC50 in the data set on 22RV1 cells (Homo sapiens, 22Rv1, 168 h) is 170 nM; in the data set with LNCaP cells (Homo sapiens, LNCaP, 168 h), 61 nM; on CYP2C8, more than 10000 nM; at CYP2C19, more than 10000 nM; in data set [1] (setting [3]), more than 10000 nM; in data set [1] (setting [4]), more than 10000 nM.

As for `CC(C)(c1ccc(-c2ccc(OCc3ccc(-c4ccc(P(C)(C)=O)nc4)cc3)cc2)cc1)c1cc(Cl)c(OCCCl)c(C#N)c1` [Compound 359], the IC50 in the data set with 22RV1 cells (Homo sapiens, 168 h) is 230 nM; in the data set on LNCaP cells (Homo sapiens, 168 h), 74 nM.

`CC(C)(c1ccc(-c2cnc(OCc3ccc(-c4cnc(P(C)(C)=O)nc4)cc3)cn2)cc1)c1cc(Cl)c(OCCCl)c(C#N)c1` [Compound 361]: the IC50 with 22RV1 cells (Homo sapiens, 168 h) came to 250 nM; in the data set on LNCaP cells (Homo sapiens, 168 h), 400 nM.

A word on the AUC(0-inf): it is total exposure, with the tail of the curve extrapolated. A higher AUC(0-inf) goes with high exposure. In turn, `Cc1cc(OCc2ccnc(P(C)(C)=O)n2)ccc1-c1ccc(C(C)(C)c2cc(Cl)c(OCCCl)c(C#N)c2)cc1` [Compound 119] returned an IC50 in the data set on 22RV1 cells (Homo sapiens, 22Rv1, 168 h) of 740 nM. Also, in data set [2] (plasma, po), the AUC(0-inf) was 333 µg·h/mL, the peak level (Cmax) was 17400 ng/mL and the half-life was 11.8 h. Also, the Tmax in data set [2] (plasma, po, read-out: Tmax) worked out at 4.7 h. The same compound had an IC50 in the data set with LNCaP cells (Homo sapiens, LNCaP, 168 h) of 940 nM.

Consider `CC1(CO)CN(c2nccc(COc3cnc(-c4ccc(C(C)(C)c5cc(Cl)c(OCCCl)c(C#N)c5)cc4)cn3)n2)C1` [Compound 365], for which the IC50 came to 930 nM in the data set on 22RV1 cells (Homo sapiens, 168 h) and 550 nM with LNCaP cells (Homo sapiens, 168 h).

Consider `CN=S(C)(=O)C1CN(c2nccc(COc3ccc(-c4ccc(C(C)(C)c5cc(Cl)c(OCCCl)c(C#N)c5)cc4)nc3)n2)C1` (centres unmarked) [Compound 414], for which the IC50 in the data set on 22RV1 cells (Homo sapiens, 168 h) was 940 nM; in the data set with LNCaP cells (Homo sapiens, 168 h) it was 360 nM.

In the data set with 22RV1 cells (Homo sapiens, 22Rv1, 168 h), `CC(C)(c1ccc(-c2ccc(/C=C/c3cnc(P(C)(C)=O)nc3)cc2)cc1)c1cc(Cl)c(OCCCl)c(C#N)c1` [Compound 234] had an IC50 of 350 nM. Moreover, in data set [2] (plasma, po), the AUC(0-inf) was determined as 307 µg·h/mL, the highest concentration (Cmax) was 13400 ng/mL and the half-life was 11 h. In addition, in data set [2] (plasma, po, read-out: Tmax), the Tmax is 7 h. Further, in the data set with LNCaP cells (Homo sapiens, LNCaP, 168 h), the 50% inhibitory concentration (IC50) is 580 nM.

Take `CC(C)(c1ccc(-c2ccc(OCC3CCC4(CC3)CN(c3ccnc(P(C)(C)=O)n3)C4)cc2)cc1)c1cc(Cl)c(OCCCl)c(C#N)c1` [Compound 260]: the IC50 stood at 170 nM in the data set with 22RV1 cells (Homo sapiens, 168 h) and 620 nM in the data set on LNCaP cells (Homo sapiens, 168 h).

In the case of `CC(C)(c1ccc(-c2cnc(OCc3ccnc(N4CC5(CCS5(=N)=O)C4)n3)cn2)cc1)c1cc(Cl)c(OCCCl)c(C#N)c1` (single isomer, unassigned) [Compound 375B], the IC50 in the data set on 22RV1 cells was 120 nM; in the data set on LNCaP cells (Homo sapiens, LNCaP, 168 h), 100 nM; on CYP2C8, more than 10000 nM; at CYP2C19, more than 10000 nM; in data set [1] (setting [3]), more than 10000 nM; in data set [1] (setting [4]) it was more than 10000 nM. The AUCi in data set [2] was found to be 2620.877 µg·h/mL. Further, the “Cmax (PO)” value in data set [2] came to 153425 ng/mL. This compound also showed a T1/2 in data set [2] of 8.67 h. The Tmax in data set [2] turned out to be 4.0 h.

With `CC(C)(c1ccc(-c2cnc(OCc3ccnc(N=S4(=O)CCOCC4)n3)cn2)cc1)c1cc(Cl)c(OCCCl)c(C#N)c1` [Compound 206], the IC50 in the data set with 22RV1 cells (Homo sapiens, 22Rv1, 168 h) was found to be 410 nM. In data set [2] (plasma, po), this compound gave a total exposure AUC(0-inf) of 236 µg·h/mL, a Cmax of 32100 ng/mL and a half-life of 1.7 h. The Tmax in data set [2] (plasma, po, read-out: Tmax) is 2 h. The compound also showed an IC50 with LNCaP cells (Homo sapiens, LNCaP, 168 h) of 980 nM.
